Laboratory results published in ChEMBL document CHEMBL5579794, “Improved synthesis and evaluation of preclinical pharmacodynamic parameters of a new monocyclic β-lactam DPI-2016” (Bioorg Med Chem Lett, 2024).

How the values were obtained:
[1] = system: Pseudomonas aeruginosa; assay: Antibacterial activity against Pseudomonas aeruginosa infected in BalbC mouse model of Septicaemia infection assessed as survival rate at 4 mg/kg administered 30 mins post infection and measured after 2 days relative to control; type: functional; settings: 48 h, time 2 day
[2] = system: Pseudomonas aeruginosa; assay: Antibacterial activity against Pseudomonas aeruginosa infected in BalbC mouse model of Septicaemia infection assessed as survival rate at 8 mg/kg administered 30 mins post infection and measured after 4 days relative to control; type: functional; settings: 96 h, time 4 day
[3] = system: Pseudomonas aeruginosa; assay: Antibacterial activity against Pseudomonas aeruginosa infected in BalbC mouse model of Septicaemia infection assessed as survival rate at 8 mg/kg administered 30 mins post infection and measured after 1 day relative to control; type: functional; settings: 24 h
[4] = system: NRK-52E; assay: Cytotoxicity against rat NRK-52E cells at upto 300 ug/ml relative to control; type: toxicity, cell-based; settings: up to 300 µg/mL
[5] = system: Pseudomonas aeruginosa; assay: Antibacterial activity against Pseudomonas aeruginosa infected in BalbC mouse model of Septicaemia infection assessed as survival rate at 8 mg/kg administered 30 mins post infection and measured after 2 days relative to control; type: functional; settings: 48 h, time 2 day
[6] = system: Pseudomonas aeruginosa; assay: Antibacterial activity against Pseudomonas aeruginosa infected in BalbC mouse model of Septicaemia infection assessed as survival rate at 8 mg/kg administered 30 mins post infection and measured after 3 days relative to control; type: functional; settings: 72 h, time 3 day
[7] = system: Pseudomonas aeruginosa; assay: Antibacterial activity against Pseudomonas aeruginosa infected in BalbC mouse model of Septicaemia infection assessed as survival rate at 4 mg/kg administered 30 mins post infection and measured after 4 days relative to control; type: functional; settings: 96 h, time 4 day
[8] = Clearance in male Sprague-Dawley rat at 2 mg/kg by LC-MS/MS analysis; type: ADME, organism-based; settings: in vivo
[9] = system: Pseudomonas aeruginosa; assay: Antibacterial activity against Pseudomonas aeruginosa infected in BalbC mouse model of Septicaemia infection assessed as survival rate at 8 mg/kg administered 30 mins post infection and measured after 7 days relative to control; type: functional; settings: 168 h, time 7 day
[10] = system: Pseudomonas aeruginosa; assay: Antibacterial activity against Pseudomonas aeruginosa infected in BalbC mouse model of Septicaemia infection assessed as survival rate at 8 mg/kg administered 30 mins post infection and measured after 5 days relative to control; type: functional; settings: 120 h, time 5 day
[11] = system: Pseudomonas aeruginosa; assay: Antibacterial activity against Pseudomonas aeruginosa infected in BalbC mouse model of Septicaemia infection assessed as survival rate at 4 mg/kg administered 30 mins post infection and measured after 3 days relative to control; type: functional; settings: 72 h, time 3 day
[12] = system: THP-1; assay: Cytotoxicity against human THP-1 cells at upto 300 ug/ml relative to control; type: toxicity, cell-based; settings: up to 300 µg/mL
[13] = system: Pseudomonas aeruginosa; assay: Antibacterial activity against Pseudomonas aeruginosa infected in BalbC mouse model of Septicaemia infection assessed as survival rate at 4 mg/kg administered 30 mins post infection and measured after 1 day relative to control; type: functional; settings: 24 h
[14] = system: Pseudomonas aeruginosa; assay: Antibacterial activity against Pseudomonas aeruginosa infected in BalbC mouse model of Septicaemia infection assessed as survival rate at 4 mg/kg administered 30 mins post infection and measured after 5 days relative to control; type: functional; settings: 120 h, time 5 day
[15] = system: J774.A1; assay: Cytotoxicity against mouse J774.A1 cells at upto 300 ug/ml relative to control; type: toxicity, cell-based; settings: up to 300 µg/mL
[16] = system: Pseudomonas aeruginosa; assay: Antibacterial activity against Pseudomonas aeruginosa infected in BalbC mouse model of Septicaemia infection assessed as survival rate at 8 mg/kg administered 30 mins post infection and measured after 6 days relative to control; type: functional; settings: 144 h, time 6 day
[17] = system: HepG2; assay: Cytotoxicity against human HepG2 cells at upto 300 ug/ml relative to control; type: toxicity, cell-based; settings: up to 300 µg/mL
[18] = Cytotoxicity against mouse BALB/3T3 clone A31 cells at upto 300 ug/ml relative to control; type: toxicity, cell-based; settings: up to 300 µg/mL
[19] = system: H9c2; assay: Cytotoxicity against rat H9c2 cells at upto 300 ug/ml relative to control; type: toxicity, cell-based; settings: up to 300 µg/mL
[20] = Plasma protein binding in mouse at 1 uM incubated for 6 hrs by LC-MS/MS analysis; type: ADME, cell-free; settings: read-out: PPB (converted)
[21] = Volume of distribution in male Sprague-Dawley rat at 2 mg/kg by LC-MS/MS analysis; type: ADME, organism-based; settings: in vivo
[22] = system: H9; assay: Cytotoxicity against human H9 cells at upto 300 ug/ml relative to control; type: toxicity, cell-based; settings: up to 300 µg/mL
[23] = system: Pseudomonas aeruginosa; assay: Antibacterial activity against Pseudomonas aeruginosa infected in BalbC mouse model of Septicaemia infection assessed as survival rate at 4 mg/kg administered 30 mins post infection and measured after 6 days relative to control; type: functional; settings: 144 h, time 6 day
[24] = system: Pseudomonas aeruginosa; assay: Antibacterial activity against Pseudomonas aeruginosa infected in BalbC mouse model of Septicaemia infection assessed as survival rate at 4 mg/kg administered 30 mins post infection and measured after 7 days relative to control; type: functional; settings: 168 h, time 7 day
[25] = system: Pseudomonas aeruginosa; assay: Antibacterial activity against Pseudomonas aeruginosa infected in BalbC mouse model of Septicaemia infection assessed as survival rate at 64 mg/kg administration starting at 0.5 to 2 hrs post infection and measured after 7 days relative to control; type: functional; settings: 168 h, time 7 day
[26] = system: Pseudomonas aeruginosa; assay: Antibacterial activity against Pseudomonas aeruginosa infected in BalbC mouse model of Septicaemia infection assessed as survival rate at 128 mg/kg administration starting at 0.5 to 2 hrs post infection and measured after 1 day relative to control; type: functional; settings: 24 h
[27] = system: Pseudomonas aeruginosa; assay: Antibacterial activity against Pseudomonas aeruginosa infected in BalbC mouse model of Septicaemia infection assessed as survival rate at 128 mg/kg administration starting at 0.5 to 2 hrs post infection and measured after 6 days relative to control; type: functional; settings: 144 h, time 6 day
[28] = system: Pseudomonas aeruginosa; assay: Antibacterial activity against Pseudomonas aeruginosa infected in BalbC mouse model of Septicaemia infection assessed as survival rate at 64 mg/kg administration starting at 0.5 to 2 hrs post infection and measured after 6 days relative to control; type: functional; settings: 144 h, time 6 day
[29] = system: Pseudomonas aeruginosa; assay: Antibacterial activity against Pseudomonas aeruginosa infected in BalbC mouse model of Septicaemia infection assessed as survival rate at 64 mg/kg administration starting at 0.5 to 2 hrs post infection and measured after 1 day relative to control; type: functional; settings: 24 h
[30] = system: Pseudomonas aeruginosa; assay: Antibacterial activity against Pseudomonas aeruginosa infected in BalbC mouse model of Septicaemia infection assessed as survival rate at 128 mg/kg administration starting at 0.5 to 2 hrs post infection and measured after 5 days relative to control; type: functional; settings: 120 h, time 5 day
[31] = system: Pseudomonas aeruginosa; assay: Antibacterial activity against Pseudomonas aeruginosa infected in BalbC mouse model of Septicaemia infection assessed as survival rate at 64 mg/kg administration starting at 0.5 to 2 hrs post infection and measured after 2 days relative to control; type: functional; settings: 48 h, time 2 day
[32] = system: Pseudomonas aeruginosa; assay: Antibacterial activity against Pseudomonas aeruginosa infected in BalbC mouse model of Septicaemia infection assessed as survival rate at 64 mg/kg administration starting at 0.5 to 2 hrs post infection and measured after 5 days relative to control; type: functional; settings: 120 h, time 5 day
[33] = system: Pseudomonas aeruginosa; assay: Antibacterial activity against Pseudomonas aeruginosa infected in BalbC mouse model of Septicaemia infection assessed as survival rate at 64 mg/kg administration starting at 0.5 to 2 hrs post infection and measured after 3 days relative to control; type: functional; settings: 72 h, time 3 day
[34] = system: Pseudomonas aeruginosa; assay: Antibacterial activity against Pseudomonas aeruginosa infected in BalbC mouse model of Septicaemia infection assessed as survival rate at 64 mg/kg administration starting at 0.5 to 2 hrs post infection and measured after 4 days relative to control; type: functional; settings: 96 h, time 4 day
[35] = system: Pseudomonas aeruginosa; assay: Antibacterial activity against Pseudomonas aeruginosa infected in BalbC mouse model of Septicaemia infection assessed as survival rate at 128 mg/kg administration starting at 0.5 to 2 hrs post infection and measured after 4 days relative to control; type: functional; settings: 96 h, time 4 day

Work on `Cc1sc(N)nc1/C(=N/O[C@@H](COc1ccc(C(=N)N[C@@H]2CCNC2)cc1)C(=O)O)C(=O)N[C@@H]1C(=O)N(OS(=O)(=O)O)C1(C)C` yielded a survival at 4 mg/kg [1] of 60%, a survival at 8 mg/kg [2] of 60% and a survival at 8 mg/kg [3] of 100%. It also gave an Activity [4] of over 80%, a survival at 8 mg/kg [5] of 60% and a survival at 8 mg/kg [6] of 60%. For the same molecule, the survival at 4 mg/kg [7] was 30%, the clearance [8] was 12.5 mL/min/kg and the survival at 8 mg/kg [9] was 60%. For the same molecule, the survival at 8 mg/kg [10] was 60%, the survival at 4 mg/kg [11] was 30% and the Activity [12] was over 80%. For the same molecule, the survival at 4 mg/kg [13] was 60%, the survival at 4 mg/kg [14] was 30% and the Activity [15] was over 80%. It also gave a survival at 8 mg/kg [16] of 60%, an Activity [17] of over 80% and an Activity [18] of over 80%. For the same molecule, the Activity [19] was over 80%, the fraction unbound at 6 h, 1 µM [20] was 0.532 and the Vd [21] was 0.37 L/kg. For the same molecule, the Activity [22] was over 80%, the survival at 4 mg/kg [23] was 30% and the survival at 4 mg/kg [24] was 30%.

For `C[C@H]1[C@H](NC(=O)/C(=N\OC(C)(C)C(=O)O)c2csc(N)n2)C(=O)N1S(=O)(=O)O` [AZTREONAM], the survival at 64 mg/kg [25] was 60%, the survival at 128 mg/kg [26] was 100% and the survival at 128 mg/kg [27] was 90%. For the same molecule, the survival at 64 mg/kg [28] was 60%, the survival at 64 mg/kg [29] was 100% and the survival at 128 mg/kg [30] was 90%. It also gave a survival at 64 mg/kg [31] of 60%, a survival at 64 mg/kg [32] of 60% and a survival at 64 mg/kg [33] of 60%. For the same molecule, the survival at 64 mg/kg [34] was 60% and the survival at 128 mg/kg [35] was 90%.
